Laboratory results: patent US20100092443A1, “NOVEL COMBINATIONS OF NITROGENATED HETEROCYCLIC ANTIBACTERIAL COMPOUNDS WITH OTHER ANTIBACTERIAL COMPOUNDS AND THE USE OF SAME AS DRUGS” (priority 2008, published 2010)
In brackets after ≈: the same amount, converted by molar mass. Like-named read-outs stand apart in the source and are kept apart here.

What was measured:
Assay type in all cases: cell-based
Pseudomonas aeruginosa = test: MIC, dilutions in liquid medium, alone and combined with NXL105; details: Pseudomonas aeruginosa
Procedure: (§1) In vitro activity, method of dilutions in liquid medium:
A series of test 96-well microtiter plates are prepared in which the same quantity of sterile nutritive medium is distributed. Increasing quantities of the compound to be studied, namely the antibacterial compound alone and the inventive combination with the compound of formula (I) of example 1, are distributed in each plate in the respective proportions 2:1 and 4:1, and then each plate is inoculated with a bacterial strain of Pseudomonas aeruginosa. After 24 h of incubation in a 37° C. oven, growth inhibition is evaluated by transillumination, which makes it possible to determine the minimum inhibitory concentrations (MICS) expressed in μg/ml.

E. coli = test: microbe, parasite or virus in culture; details: Escherichia coli
Procedure: as §1
(§2) A series of test 96-well microtiter plates are prepared in which the same quantity of sterile nutritive medium is distributed. […] After 24 h of incubation in a 37° C. oven, growth inhibition is evaluated by transillumination, which makes it possible to determine the minimum inhibitory concentrations (MICS) expressed in μg/ml.

E. cloacae = test: MIC, dilutions in liquid medium, alone and combined with NXL105; details: Enterobacter cloacae
Procedure: as §1, §2

K. pneumoniae = test: as above
Procedure: as §1, §2

K. oxytoca = test: as above; details: Klebsiella oxytoca, read-out: MIC
C. freundii = test: as above; details: Citrobacter freundii

## C[C@@H](O)[C@H]1C(=O)N2C(C(=O)O)=C(S[C@@H]3CN[C@H](C(=O)N(C)C)C3)[C@H](C)[C@H]12 [Meropenem]
Pseudomonas aeruginosa; ATCC27853, P. aeruginosa ATCC 27853
  MIC: 1 µg/mL
Pseudomonas aeruginosa; P. aeruginosa 391HG2
  MIC: > 32 µg/mL
Pseudomonas aeruginosa; P. aeruginosa 391HG21
  MIC: > 32 µg/mL
Pseudomonas aeruginosa; P. aeruginosa 391HG38
  MIC: 32 µg/mL
Pseudomonas aeruginosa; P. aeruginosa 391HG39
  MIC: 0.06 µg/mL
Pseudomonas aeruginosa; P. aeruginosa 391HG58
  MIC: 32 µg/mL
Pseudomonas aeruginosa; P. aeruginosa 391HG118
  MIC: 8 µg/mL
Pseudomonas aeruginosa; P. aeruginosa 391HG123
  MIC: 32 µg/mL
Pseudomonas aeruginosa; P. aeruginosa 391HG158
  MIC: 32 µg/mL
Pseudomonas aeruginosa; P. aeruginosa 391HG271
  MIC: > 32 µg/mL
Pseudomonas aeruginosa; P. aeruginosa 391HG329
  MIC: > 32 µg/mL
Pseudomonas aeruginosa; P. aeruginosa 391K767
  MIC: 2 µg/mL
Pseudomonas aeruginosa; P. aeruginosa 391K1455
  MIC: 4 µg/mL
Pseudomonas aeruginosa; P. aeruginosa 391K1523
  MIC: 2 µg/mL
Pseudomonas aeruginosa; P. aeruginosa 391K1525
  MIC: 2 µg/mL
Pseudomonas aeruginosa; P. aeruginosa 391K1536
  MIC: 2 µg/mL
Pseudomonas aeruginosa; P. aeruginosa 391K2376
  MIC: 2 µg/mL
Pseudomonas aeruginosa; P. aeruginosa 391K2379
  MIC: 4 µg/mL
Pseudomonas aeruginosa; P. aeruginosa 391K2415
  MIC: 2 µg/mL
Pseudomonas aeruginosa; P. aeruginosa 391KB9
  MIC: 4 µg/mL
Pseudomonas aeruginosa; P. aeruginosa 391KB14
  MIC: 8 µg/mL
Pseudomonas aeruginosa; P. aeruginosa 391KB21
  MIC: 8 µg/mL
Pseudomonas aeruginosa; P. aeruginosa 391KB33
  MIC: 4 µg/mL
Pseudomonas aeruginosa; P. aeruginosa 391KB38
  MIC: 8 µg/mL
Pseudomonas aeruginosa; P. aeruginosa 391KB62
  MIC: > 32 µg/mL
Pseudomonas aeruginosa; P. aeruginosa 391KB68
  MIC: 1 µg/mL
Pseudomonas aeruginosa; P. aeruginosa 391KB90
  MIC: 16 µg/mL
Pseudomonas aeruginosa; P. aeruginosa 391KB91
  MIC: 16 µg/mL
Pseudomonas aeruginosa; P. aeruginosa 391KB99
  MIC: 16 µg/mL
Pseudomonas aeruginosa; P. aeruginosa 391KB103
  MIC: 8 µg/mL
Pseudomonas aeruginosa; P. aeruginosa 391KB105
  MIC: 4 µg/mL
Pseudomonas aeruginosa; P. aeruginosa 391KB106
  MIC: 4 µg/mL
Pseudomonas aeruginosa; P. aeruginosa 391KB107
  MIC: 32 µg/mL
Pseudomonas aeruginosa; P. aeruginosa 391KB114
  MIC: 16 µg/mL
Pseudomonas aeruginosa; P. aeruginosa 391KB127
  MIC: 2 µg/mL
Pseudomonas aeruginosa; P. aeruginosa 391KB135
  MIC: > 32 µg/mL
Pseudomonas aeruginosa; P. aeruginosa 391KB136
  MIC: > 32 µg/mL
Pseudomonas aeruginosa; P. aeruginosa 391KB137
  MIC: > 32 µg/mL
Pseudomonas aeruginosa; P. aeruginosa 391KB138
  MIC: > 32 µg/mL
Pseudomonas aeruginosa; P. aeruginosa 391KB139
  MIC: > 32 µg/mL
Pseudomonas aeruginosa; P. aeruginosa 391KB140
  MIC: 16 µg/mL
Pseudomonas aeruginosa; P. aeruginosa 391KB141
  MIC: > 32 µg/mL
Pseudomonas aeruginosa; P. aeruginosa 391KB142
  MIC: > 32 µg/mL
Pseudomonas aeruginosa; P. aeruginosa 391KB143
  MIC: > 32 µg/mL
Pseudomonas aeruginosa; P. aeruginosa 391KB144
  MIC: > 32 µg/mL
Pseudomonas aeruginosa; P. aeruginosa 391QBR2
  MIC: > 32 µg/mL
Pseudomonas aeruginosa; P. aeruginosa 391QBR3
  MIC: 32 µg/mL
Pseudomonas aeruginosa; P. aeruginosa 391QBR4
  MIC: 16 µg/mL
Pseudomonas aeruginosa; P. aeruginosa 391QBR5
  MIC: 32 µg/mL
Pseudomonas aeruginosa; P. aeruginosa 391QBR7
  MIC: 32 µg/mL
Pseudomonas aeruginosa; P. aeruginosa 391QBR8
  MIC: 16 µg/mL
Pseudomonas aeruginosa; P. aeruginosa 391QBR9
  MIC: 16 µg/mL
Pseudomonas aeruginosa; P. aeruginosa 391QBR10
  MIC: 4 µg/mL
Pseudomonas aeruginosa; P. aeruginosa C3719
  MIC: > 32 µg/mL
Pseudomonas aeruginosa; P. aeruginosa PA2192
  MIC: 8 µg/mL
E. coli; 24 h, E. coli 2138, KPC-2 + TEM-1
  MIC: 8 µg/mL
E. coli; 24 h, E. coli (no alias), CTX-M-15 + TEM-1 + OXA-1
  MIC: ≤ 0.03 µg/mL
E. coli; 24 h, E. coli IND, VEB-1 + CMY-2
  MIC: 0.06 µg/mL
E. coli; 24 h, E. coli TN06, CTX-M-2 + TEM-1
  MIC: 0.06 µg/mL
E. coli; 24 h, E. coli TN13, CTX-M-14 + CMY-2 + TEM-1
  MIC: 0.25 µg/mL
E. coli; 24 h, E. coli Tunisie clone E4, CTX-M-16 + TEM-1
  MIC: 0.125 µg/mL
E. coli; E. coli (no alias), Cephalosporinase, read-out: MIC
  MIC: 0.06 µg/mL (≈ 0.156 µM)
E. coli; E. coli (no alias), SHV-4
  MIC: ≤ 0.03 µg/mL
E. coli; E. coli (no alias), TEM-3
  MIC: ≤ 0.03 µg/mL
E. cloacae
  MIC: 0.125 µg/mL
E. cloacae; 24 h, E. cloacae 7506, KPC-2 + TEM-1 + KLUC-2, read-out: MIC
  MIC: 16 µg/mL
E. cloacae; E. cloacae (no alias), AmpC, read-out: MIC
  MIC: 0.5 µg/mL
K. pneumoniae; K. pneumoniae 236, SHV-5 + TEM-10
  MIC: 0.125 µg/mL
K. pneumoniae; K. pneumoniae 444, SHV-5 + TEM-2 + PER
  MIC: 0.125 µg/mL
K. pneumoniae; K. pneumoniae 1734, FOX-3 + TEM-1
  MIC: 0.125 µg/mL
K. pneumoniae; K. pneumoniae 9701, CMY-4 + TEM-1
  MIC: 0.125 µg/mL
K. pneumoniae; K. pneumoniae Tunisie clone K1, CTX-M-16 + OXA-1
  MIC: 0.125 µg/mL
K. pneumoniae; K. pneumoniae Tunisie clone K4, CTX-M-15 + TEM-1 + OXA-1
  MIC: 0.125 µg/mL
K. pneumoniae; Klebsiella pneumoniae
  MIC: 0.125 µg/mL
K. pneumoniae; Klebsiella pneumoniae, 24 h, K. pneumoniae 60, SHV-2 + TEM-2 + PER, read-out: MIC
  MIC: 0.06 µg/mL
K. pneumoniae; Klebsiella pneumoniae, 24 h, K. pneumoniae 157, SHV-5 + TEM-26, read-out: MIC
  MIC: ≤ 0.03 µg/mL
K. pneumoniae; Klebsiella pneumoniae, 24 h, K. pneumoniae 181, SHV-5 + TEM-10, read-out: MIC
  MIC: 4 µg/mL
K. pneumoniae; Klebsiella pneumoniae, 24 h, K. pneumoniae 238, SHV-2 + TEM-12 + CTX-M-2, read-out: MIC
  MIC: ≤ 0.03 µg/mL
K. pneumoniae; Klebsiella pneumoniae, 24 h, K. pneumoniae 253, SHV-2 + TEM-12 + CTX-M-2, read-out: MIC
  MIC: 0.06 µg/mL
K. pneumoniae; Klebsiella pneumoniae, 24 h, K. pneumoniae 427, SHV-1 + TEM-1B + CTX-M-3, read-out: MIC
  MIC: 0.06 µg/mL
K. pneumoniae; Klebsiella pneumoniae, 24 h, K. pneumoniae 441, SHV-1 + TEM-2 + PER, read-out: MIC
  MIC: 0.06 µg/mL
K. pneumoniae; Klebsiella pneumoniae, 24 h, K. pneumoniae 449, SHV-1 + TEM-2 + PER, read-out: MIC
  MIC: ≤ 0.03 µg/mL
K. pneumoniae; Klebsiella pneumoniae, 24 h, K. pneumoniae 465, TEM-1B + CTX-M-2, read-out: MIC
  MIC: 0.25 µg/mL
K. pneumoniae; Klebsiella pneumoniae, 24 h, K. pneumoniae KOL, MOX-2 + SHV-5 + TEM-1, read-out: MIC
  MIC: 0.06 µg/mL
K. pneumoniae; Klebsiella pneumoniae, 24 h, K. pneumoniae Patient 1BHR, VIM-4 + CTX-M-15 = CMY-4 + TEM-1, read-out: MIC
  MIC: 16 µg/mL
K. pneumoniae; Klebsiella pneumoniae, 24 h, K. pneumoniae Patient F, VIM-1 + SHV-5, read-out: MIC
  MIC: > 32 µg/mL
K. pneumoniae; Klebsiella pneumoniae, 24 h, K. pneumoniae SLK54, ACC-1 + TEM-1, read-out: MIC
  MIC: 0.06 µg/mL
K. pneumoniae; Klebsiella pneumoniae, 24 h, K. pneumoniae TN58467, DHA-1 + SHV-2a + TEM-1, read-out: MIC
  MIC: 0.25 µg/mL
K. pneumoniae; Klebsiella pneumoniae, ATCC700603, K. pneumoniae ATCC 700603, SHV-18, read-out: MIC
  MIC: 0.06 µg/mL
K. pneumoniae; Klebsiella pneumoniae, K. pneumoniae 26, SHV-5, read-out: MIC
  MIC: ≤ 0.03 µg/mL
K. pneumoniae; Klebsiella pneumoniae, K. pneumoniae CL5761, KPC-3, read-out: MIC
  MIC: > 32 µg/mL
K. pneumoniae; Klebsiella pneumoniae, K. pneumoniae CL5762, KPC-3, read-out: MIC
  MIC: > 32 µg/mL
K. pneumoniae; Klebsiella pneumoniae, K. pneumoniae CL5763, KPC-3, read-out: MIC
  MIC: > 32 µg/mL
K. pneumoniae; Klebsiella pneumoniae, K. pneumoniae VA8, KPC-3, read-out: MIC
  MIC: ≤ 0.03 µg/mL
K. pneumoniae; Klebsiella pneumoniae, K. pneumoniae VAKP, KPC-2, read-out: MIC
  MIC: 32 µg/mL
K. pneumoniae; Klebsiella pneumoniae, K. pneumoniae YC, KPC-2, read-out: MIC
  MIC: 32 µg/mL
K. oxytoca; K. oxytoca 1431, TEM-129
  MIC: 0.06 µg/mL
K. oxytoca; K. oxytoca 16944, OXY-2, TEM-1
  MIC: 0.06 µg/mL
C. freundii
  MIC: 0.125 µg/mL
C. freundii; 24 h, C. freundii (no alias), AmpC + TEM-1, read-out: MIC
  MIC: 0.06 µg/mL
C. freundii; C. freundii (no alias, table row r121), AmpC, read-out: MIC
  MIC: 0.25 µg/mL
C. freundii; C. freundii (no alias, table row r122), AmpC, read-out: MIC
  MIC: 0.06 µg/mL
C. freundii; C. freundii (no alias, table row r125), AmpC, read-out: MIC
  MIC: 0.06 µg/mL
